{"source": "patent US9314458B2", "about": "“Topical use of ingenol-3-angelate or a salt thereof to treat skin cancer” (LEO Laboratories Limited, priority 2000, dated 2016)", "key": {"PKCζ": {"target": "T1, PKCζ (Homo sapiens, UniProt Q05513)", "T1 construct": "host or cells: HeLa cells", "T1 sequence (Q05513 1-592)": "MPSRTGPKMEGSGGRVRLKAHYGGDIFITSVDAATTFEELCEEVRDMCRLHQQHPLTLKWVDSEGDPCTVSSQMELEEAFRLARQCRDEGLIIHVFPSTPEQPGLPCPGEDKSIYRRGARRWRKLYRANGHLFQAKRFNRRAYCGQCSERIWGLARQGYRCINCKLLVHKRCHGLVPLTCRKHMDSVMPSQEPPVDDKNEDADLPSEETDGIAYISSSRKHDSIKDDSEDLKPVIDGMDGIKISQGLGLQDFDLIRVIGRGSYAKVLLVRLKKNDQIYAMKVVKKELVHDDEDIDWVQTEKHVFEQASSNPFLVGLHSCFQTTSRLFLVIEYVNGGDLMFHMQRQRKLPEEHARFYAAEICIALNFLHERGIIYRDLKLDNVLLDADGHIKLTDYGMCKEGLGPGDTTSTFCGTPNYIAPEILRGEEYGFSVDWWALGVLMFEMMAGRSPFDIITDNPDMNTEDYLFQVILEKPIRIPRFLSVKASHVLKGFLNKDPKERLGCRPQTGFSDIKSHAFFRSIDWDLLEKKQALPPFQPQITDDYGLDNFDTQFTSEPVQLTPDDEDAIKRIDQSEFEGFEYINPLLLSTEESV", "assay": "EGFP-PKC translocation in HeLa cells (PKCζ)", "format": "cell-based", "settings": "one hour, same concentrations", "procedure": "(§1) Five EGFP-PKC isoforms (Clontech) were available for this experiment, enabling the screening of the three predominant PKC families (i.e. classical, novel and atypical PKCs). The members of the various PKC families are α, β, and γ (classical), θ (novel) and ζ (atypical).\n(§2) HeLa cells were plated out in a 24-well plate containing coverslips and transfected with PKC isoforms fused to EGFP, using a commercially available effectine-transfection kit (QIAGEN, Pty. Ltd.). Cells were exposed to the transfection reagents for 16-24 hr. Subsequently, transfected cells were treated for one hour with TPA (100 ng/mL), bryostatin-1 (5 pg/mL), PEP003 (2.25 μg/mL; 5 μM) or PEP005 ([…]) 1.5 μM). Following treatment, cells were fixed on coverslips and mounted on glass slides. The slides were subsequently examined visually by fluorescence microscopy, photographed, and over 150 cells were counted/treatment/PKC isoform. Counted cells were classified according to the localisation of the PKC-EGFP fluorescence as either cytoplasmic or plasma membrane using ImagePro™ 4.1 (FIG. 5). […] The number of these cells was also counted. Results are presented as an average and standard deviation of percentages of cells (Table 1)."}, "[1]": {"tested_on": "Peripheral blood mononuclear cells (granulocytes, monocytes, lymphocytes)", "assay": "Respiratory burst, DCFH-DA H2O2 flow cytometry", "format": "cell-based", "settings": "bisindolylmaleimide 10 ng/mL or 1 ng/mL", "procedure": "Experiments were also carried out using 2′,7′-dichlorofluorescein diacetate (DCFH-DA) to measure the production of H2O2. (J P Robinson, Oxidative burst methods, in Handbook of Flow Cytometry Methods, Wiley-Liss Inc, pp 147-149, 1993). H2O2 oxidizes the non-fluorescent probe (DCFH-DA) to a fluorescent probe that can then be detected by a flow cytometer. Peripheral blood mononuclear cells (PBMC) were extracted from a donor blood sample by lysis of heparinized blood and used in a suspension of 1×10^6/mL of phosphate buffer, pH 7.3. The cells were then incubated with DCFH-DA (1 μL/mL of 20 mM stock) for 15 minutes to allow it to be taken up and trapped by hydrolysis with cellular esterases. The cells were then stimulated by test compounds for 15 min at 37° C. Controls included in the experiment were unloaded control (cells with no DCFH-DA) and loaded control (cells with DCFH-DA, but no stimulation). These were used to monitor the non-specific oxidation of unstimulated cells. The cells were then analyzed on the flow cytometer (excitation at 488 nm, emission at 525±20 nm), gating each sample for individual cell populations—granulocytes, monocytes and lymphocytes (Table 3)."}, "rat brain PKC": {"tested_on": "rat brain PKC", "assay": "PKC kinase activity, PepTag non-radioactive protein kinase assay", "format": "biochemical", "settings": "PepTag gel; various dilutions of TPA; ether extract final dilution 1 in 5; crude sap and aqueous layer diluted 1/25", "experimental": "The kinase activity of rat brain PKC (Promega) was determined using the Peptag™ Non-Radioactive Protein Kinase Kit (Promega). Using agarose gel electrophoresis the technique visualises the opposing electrostatic charge of a fluorescently labeled peptide ([sequence]) compared to the phosphorylated version of the same peptide.\nThe reaction mixture was separated by gel electrophoresis, showing migration of the unreacted substrate (a) to the anode (top), and the product (b), which is more negatively charged because of phosphorylation by PKC, moving towards the cathode (bottom)."}, "[2]": {"tested_on": "HIV-1 LAI strain in U1 cells", "assay": "Activation of latent HIV from U1 cells (p24 ELISA)", "format": "cell-based", "settings": "20 hr culture", "text": "A latently HIV-1 infected cell line (U1), derived from the promonocytic cell line U937 after infection with HIV-1 LAI strain, was used in these experiments. In the absence of activation, no or little virus (measured as p24 production) is produced by the U1 cell line. Phorbol esters are known to activate virus production from these cells (Tobiume et al., 1998) and so TPA/PMA was used as a positive control in these experiments.\nSupernatants were collected and viral replication monitored by determination of the amounts of HIV p24 gag protein in the culture supernatants by ELISA, using a NEN Life Science HIV-1 p24 ELISA kit. p24 values were calculated from OD values using a standard curve."}, "PKCβ": {"target": "T2, PKCβ (Homo sapiens, UniProt P05771)", "T2 construct": "host or cells: HeLa cells", "T2 sequence (P05771 whole entry, species assumed)": "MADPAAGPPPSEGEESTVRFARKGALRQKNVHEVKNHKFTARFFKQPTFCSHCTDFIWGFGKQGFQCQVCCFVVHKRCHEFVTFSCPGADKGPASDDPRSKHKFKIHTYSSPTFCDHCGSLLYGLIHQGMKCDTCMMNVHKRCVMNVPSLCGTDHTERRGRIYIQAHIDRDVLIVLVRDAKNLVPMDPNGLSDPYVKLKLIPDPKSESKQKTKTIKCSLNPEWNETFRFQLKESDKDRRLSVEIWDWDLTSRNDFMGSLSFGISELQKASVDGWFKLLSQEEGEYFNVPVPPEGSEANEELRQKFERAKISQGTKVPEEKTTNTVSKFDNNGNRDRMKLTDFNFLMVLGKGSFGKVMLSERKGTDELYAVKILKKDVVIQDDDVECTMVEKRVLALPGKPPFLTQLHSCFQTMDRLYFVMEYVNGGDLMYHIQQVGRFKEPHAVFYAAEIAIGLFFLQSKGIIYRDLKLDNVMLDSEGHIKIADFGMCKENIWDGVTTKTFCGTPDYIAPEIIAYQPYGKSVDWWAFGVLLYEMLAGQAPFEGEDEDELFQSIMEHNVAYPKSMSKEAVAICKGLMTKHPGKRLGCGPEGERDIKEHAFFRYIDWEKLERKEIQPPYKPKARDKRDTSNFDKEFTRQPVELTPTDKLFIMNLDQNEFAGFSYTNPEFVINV", "assay": "EGFP-PKC translocation in HeLa cells (PKCβ)", "format": "cell-based", "settings": "one hour", "procedure": "as §1, §2"}, "PKCα": {"target": "T3, PKCα (Homo sapiens, UniProt P17252)", "T3 construct": "host or cells: HeLa cells", "format": "cell-based", "settings": "HeLa, one hour", "procedure": "as §1\nas §2, with “counted.” for “counted. Results are presented as an average and standard deviation of percentages of cells (Table 1).”"}, "[3]": {"tested_on": "peripheral blood mononuclear cells", "assay": "Phagocytosis with fluorescent beads", "format": "cell-based", "settings": "30 min, whole heparinized blood", "procedure": "Phagocytosis by peripheral blood mononuclear cells (PBMCs) was assayed (Steinkamp et al., 1982) using 1 μm Fluoresbrite™ yellow-green fluorescent latex spheres (Polysciences, Inc., Warrington, Pa.). A sample of whole, heparinized blood was treated with drug and 5×10E7 fluorescent latex beads in 10 μL of PBS added per mL of suspension. Cells were incubated and maintained in suspension for 30 min by means of a shaker platform at 37° C. The stimulated and non-stimulated samples were then lysed to isolate PBMCs. The PBMCs were run on the flow cytometer measuring FITC (excitation at 488 nm, emission at 525±20 nm), gated for fluorescence (phagocytosed spheres) and light scatter (cell size)."}}, "data": [{"smiles": "CCCCCCCCCCCCCC(=O)O[C@@H]1[C@@H](C)[C@@]2(O)[C@@H](C=C(CO)C[C@]3(O)C(=O)C(C)=C[C@@H]23)C2C(C)(C)[C@@]21OC(C)=O", "note": "(single isomer, unassigned) [TPA]", "values": [{"measurement": "translocation of PKCζ", "setting": "PKCζ", "result": "fail to induce translocation"}, {"measurement": "respiratory burst with bisindolylmaleimide added", "setting": "[1]", "result": "blocked"}, {"measurement": "activation of PKC (FIG. 1)", "setting": "rat brain PKC", "result": "showed activation of PKC"}, {"measurement": "activation of HIV from U1 cells (p24 production)", "setting": "[2]", "result": "activated HIV from U1 cells"}, {"measurement": "number of PKCβ transfected cells with Golgi-like fluorescence", "setting": "PKCβ", "result": "increase in Golgi-like fluorescence"}, {"measurement": "translocation of PKCβ from cytoplasm to plasma membrane", "setting": "PKCβ; TPA 100 ng/mL, bryostatin-1 5 pg/mL, PEP003 2.25 μg/mL (5 μM), PEP005 670 μg/mL (1.5 μM)", "result": "translocated from the cytoplasm to the plasma membrane"}, {"measurement": "number of PKCα transfected cells displaying Golgi-like fluorescence", "setting": "PKCα", "result": "increase in the number of cells displaying Golgi-like fluorescence"}, {"measurement": "translocation of PKCα from cytoplasm to plasma membrane", "setting": "PKCα; TPA 100 ng/mL, bryostatin-1 5 pg/mL, PEP003 2.25 μg/mL (5 μM)", "result": "translocated from the cytoplasm to the plasma membrane"}, {"measurement": "phagocytosis of fluorescent latex spheres in PBMCs", "setting": "[3]", "result": "stimulate phagocytosis"}]}]}
